# Data: patent US20080312336A1, “Preventive and/or Therapeutic Agent for Diabetic Vascular Disorder and Respiratory Disorder” (priority 2005, published 2008)
# Columns and labels:
# [1] = tested on: tracheal muscles isolated from streptozotocin-induced diabetic rats; conditions: cited from earlier work
# [2] = tested on: tracheal specimens contracted with carbachol; conditions: cited from earlier work; for relaxation of specimens contracted with carbachol: carbachol 10^−6 mol/l; for response of diabetic rat specimens compared with control animals: specimens six weeks after 65 mg/kg i.v. streptozotocin
# rat isolated trachea = conditions: streptozotocin-induced diabetic rats and normal rats; cited from earlier work
# [3] = tested on: tracheal smooth muscles from the STZ-induced diabetic rat model; assay: Carbachol-induced contraction of isolated tracheal smooth muscle from STZ-induced diabetic rats after four weeks of dosing; type: in vivo, SD rats; conditions: for effective dose for inducing 50% muscle contraction (ED50): ED50 of carbachol; for effective dose for inducing 50% muscle contraction (ED50) / maximum muscle contractile force (Emax): mean±SD, n=6; for maximum muscle contractile force (Emax): carbachol
# Procedure: Eight-week-old male SD rats were divided into four groups, three of which were intraperitoneally administered with 50 mg/kg of streptozotocin (hereafter, also referred to as STZ) to induce diabetes. Of this diabetic model, two groups were used as the test substance-administered groups, and were intraperitoneally administered with 2 mg/kg or 8 mg/kg of the compound, 3-(15-hydroxypentadecyl)-2,4,4-trimethyl-2-cyclohexen-1-one (hereunder, referred to as “compound 24”) synthesized in Preparation Example 24, once daily for four weeks continuously. The diabetic model which was not administered with “compound 24” was used as the control group, and rats administered with neither STZ nor “compound 24” were used as the non-treated group.
# After four weeks from the start of administration, tracheae were isolated to prepare specimens (mucosal epithelium (+) specimens). The mucosal epithelia were further removed from these specimens to form mucosal epithelium (−) specimens. These specimens were suspended in an organ bath, and the contractile response to cumulative administration of carbachol (CAS Registry No.: 51-83-2) was observed. The muscle contractile force was measured with various cumulative concentrations of carbachol within the range of 10^−8.0 to 10^−4.5 M, to obtain the maximum muscle contractile force (Emax (g/mg tissue)) and the effective dose for inducing 50% muscle contraction (ED50 (M)).
# [4] = tested on: vascular smooth muscles from the STZ-induced diabetic rat model; assay: U-46619-induced contraction of isolated thoracic aorta rings from STZ-induced diabetic rats after four weeks of dosing; type: in vivo, SD rats; set-up: effective dose for inducing 50% muscle contraction (ED50): unit not given here; conditions: for effective dose for inducing 50% muscle contraction (ED50): ED50 of U-46619
# Procedure: Eight-week-old male SD rats were divided into four groups, three of which were intraperitoneally administered with 50 mg/kg of streptozotocin (hereafter, also referred to as STZ) to induce diabetes. Of this diabetic model, two groups were used as the test substance-administered groups, and were intraperitoneally administered with 2 mg/kg or 8 mg/kg of “compound 24” synthesized in Preparation Example […] once daily for four weeks continuously. The diabetic model which was not administered with “compound 24” was used as the control group, and rats which were administered with neither STZ nor “compound 24” were used as the non-treated group.
# After four weeks from the start of administration, thoracic aorta were isolated to form ring specimens (endothelium (+) specimens) of about 2 mm in length. The vascular endothelia were further removed from these specimens to form endothelium (−) specimens. These specimens were suspended in an organ bath, and the contractile response to cumulative administration of 9,11-dideoxy-9α,11α-methanoepoxy-prosta-5Z,13E-dien-1-oic acid (CAS Registry No.: 56985-40-1, hereafter also referred to as U-46619), which is a thromboxane A2 derivative, was observed. The muscle contractile force was measured with various cumulative concentrations of U-46619 within the range of 10^−9.0 to 10^−6.5 M, to obtain the maximum muscle contractile force (Emax (g/mg tissue)) and the effective dose for inducing 50% muscle contraction (ED50 (M)).
# [5] = mucosal epithelium (+) specimens, 2 mg/kg i.p. once daily for four weeks
# [6] = mucosal epithelium (+) specimens, 8 mg/kg i.p. once daily for four weeks
# [7] = mucosal epithelium (−) specimens, 2 mg/kg i.p. once daily for four weeks
# [8] = mucosal epithelium (−) specimens, 8 mg/kg i.p. once daily for four weeks
structure (smiles),measurement,setting,value
"COC(=O)[C@@H](N)CCCNC(=N)N[N+](=O)[O-] [L-NAME, NG-nitro-L-arginine-methylester]",effect on electrical stimulation-induced contraction,[1]; normal rats and diabetic rats,"enhanced the response in normal rats, but not in diabetic rats"
same,effect on acetylcholine-induced contraction,[1]; tracheal muscles from streptozotocin-induced diabetic rats,not affected
Cn1c(=O)c2[nH]cnc2n(C)c1=O [theophylline],relaxation of specimens contracted with carbachol,[2],concentration-dependent relaxation
same,response of diabetic rat specimens compared with control animals,[2],no significant difference
"O=C1C=C(CCCCCCCCCCCCCO)CCC1 [Preparation Example 4, 3-(13-hydroxytridecyl)-2-cyclohexen-1-one]",melting point,,42 to 43 °C
COc1ccc(C2CNC(=O)C2)cc1OC1CCCC1 (centres unmarked) [rolipram],relaxation of specimens contracted with carbachol,[2],concentration-dependent relaxation
same,concentration at which the effect was observed,[2]; control animal specimens,observed at the lowest concentration
same,response of diabetic rat specimens compared with control animals,[2],no significant difference
"NCCCC(=O)O [GABA, γ-aminobutyric acid]",effect on tracheal contraction induced by electrical stimulation,rat isolated trachea,inhibited
"O=C1C=C(CCCCCCCCCCCO)CCC1 [Preparation Example 2, 3-(11-hydroxyundecyl)-2-cyclohexen-1-one]",melting point,,34 to 35 °C
"CC1=C(CCCCCCCCCCCCCCCO)C(C)(C)CCC1=O [Compound 24, 3-(15-hydroxypentadecyl)-2,4,4-trimethyl-2-cyclohexen-1-one]",effect on ED50 decrease of carbachol-induced tracheal smooth muscle contraction,"[3]; 2 and 8 mg/kg, vs. control group",inhibited the ED50 decrease in a dose-dependent manner
same,effective dose for inducing 50% muscle contraction (ED50),[3]; [5],12.2 ± 2.3 ×10^−8 M
same,effective dose for inducing 50% muscle contraction (ED50),[3]; [6],17.2 ± 5.3 ×10^−8 M
same,effective dose for inducing 50% muscle contraction (ED50),[3]; [7],11.4 ± 3.1 ×10^−8 M
same,effective dose for inducing 50% muscle contraction (ED50),[3]; [8],13.3 ± 4.2 ×10^−8 M
same,overall effect on tracheal smooth muscle contraction,[3]; STZ-induced diabetic rats,tracheal smooth muscle contraction-improving tendency
same,effect on Emax increase of carbachol-induced tracheal smooth muscle contraction,"[3]; both mucosal epithelium (+) and (−) specimens, 2 and 8 mg/kg, vs. control group",tended to suppress the Emax increase concentration-dependently
same,maximum muscle contractile force (Emax),[3]; [5],0.303 ± 0.047 g/mg tissue
same,maximum muscle contractile force (Emax),[3]; [6],0.292 ± 0.029 g/mg tissue
same,maximum muscle contractile force (Emax),[3]; [7],0.307 ± 0.036 g/mg tissue
same,maximum muscle contractile force (Emax),[3]; [8],0.242 ± 0.019 g/mg tissue
same,"effect on Emax increase, endothelium (−) specimens","[4]; 2 mg/kg or 8 mg/kg, compared to the control group",significant inhibition of the Emax increase
same,"effect on Emax increase, endothelium (+) specimens","[4]; 8 mg/kg, compared to the control group",significant inhibition of the Emax increase
same,effective dose for inducing 50% muscle contraction (ED50),"[4]; endothelium (+) specimens, 2 mg/kg i.p. once daily for four weeks, mean±SD, n=6",8.077 ± 0.037 ×10^−9
same,effective dose for inducing 50% muscle contraction (ED50),"[4]; endothelium (+) specimens, 8 mg/kg i.p. once daily for four weeks, mean±SD, n=6",8.102 ± 0.055 ×10^−9
same,effective dose for inducing 50% muscle contraction (ED50),"[4]; endothelium (−) specimens, 2 mg/kg i.p. once daily for four weeks, mean±SD, n=6",8.149 ± 0.030 ×10^−9
same,effective dose for inducing 50% muscle contraction (ED50),"[4]; endothelium (−) specimens, 8 mg/kg i.p. once daily for four weeks, mean±SD, n=6",8.194 ± 0.114 ×10^−9
same,overall effect on vascular smooth muscle contraction,[4]; STZ-induced diabetic rats,vascular smooth muscle contraction-inhibiting effect
same,effect on ED50 of U-46619,[4]; all groups,no difference in ED50 among the groups
same,effect on Emax increase of U-46619-induced vascular smooth muscle contraction,"[4]; both endothelium (+) and (−) specimens, 2 and 8 mg/kg, vs. control group",inhibited the Emax increase in a dose-dependent manner
same,maximum muscle contractile force (Emax),"[4]; endothelium (+) specimens, U-46619, 2 mg/kg i.p. once daily for four weeks, mean±SD, n=6",0.576 ± 0.082 g/mg tissue
"O=C1C=C(CCCCCCCCCCCCO)CCC1 [Preparation Example 3, 3-(12-hydroxydodecyl)-2-cyclohexen-1-one]",melting point,,35 to 36 °C
"O=C1C=C(CCCCCCCCCCCCCCO)CCC1 [Preparation Example 5, 3-(14-hydroxytetradecyl)-2-cyclohexen-1-one]",melting point,,44 to 45 °C
Nc1cc(-c2ccncc2)c[nH]c1=O [aminone],relaxation of specimens contracted with carbachol,[2],concentration-dependent relaxation
same,response of diabetic rat specimens compared with control animals,[2],higher response
